Measured values: PubChem BioAssay (NCI)
Values joined by “and” are separate entries in the source; they are usually repeats but may differ in a detail not shown here. Identical values can stand only once.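 96-well plates; 48 h exposure; 5 concentrations. Endpoints by linear interpolation between flanking doses. Not reached: highest tested concentration assigned. GI50: concentration for 50% inhibition of growth. TGI denotes the concentration required for complete inhibition of growth.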

The compounds below were run on IGROV1 ovarian (assay: inhibition of tumour cell growth, NCI panel, 48 h).

Row | Compound | TGI | GI50
1 | O=C1NC(=O)c2ccc([N+](=O)[O-])c3cccc1c23 | 31 µM | –
2 | C[N+](C)(C)CC1CCCC(C[N+](C)(C)C)C1=O (stereo not given) | 11.5 µM | –
3 | CN(C)CCCn1c2c(c3ccccc3c1=O)C(=O)c1ccccc1-2 | > 100 µM | 2.29 µM
4 | COc1ccc2c(c1)C=C([N+](=O)[O-])C(C1OC(C)(C)OC1C1COC(C)(C)O1)O2 (stereo not given) | 31.7 µM | –
5 | CN(C)CCNC(=O)c1cccc(C(=O)Nc2ccccc2)c1[N+](=O)[O-] | > 100 µM | –
6 | CC(=O)OC1Oc2ccccc2-c2oc(=O)c(-c3cc4ccc(N(C)C)cc4oc3=O)cc21 (stereo not given) | 36.9 µM | 14.6 µM
7 | CCC1(O)C(=O)OCc2c1cc1n(c2=O)Cc2cc3ccc(C=O)cc3nc2-1 (stereo not given) | 20 µM and 50.7 µM | 5.11 µM
8 | COc1ccc2c(c1)C(=O)c1c-2n(CCCn2ccnc2)c(=O)c2ccccc12 | 2.55 µM | 0.204 µM
9 | COc1cc2oc(-c3ccc(O)cc3)cc(=O)c2c(OC)c1OC | > 100 µM | –
10 | O=C(CCl)Nc1ccc(Cl)cc1 | 5.04 µM | 2.11 µM
11 | Fc1cc(F)c(COc2cc(Cn3cnc4c(Cl)nc(Cl)nc43)ccc2C23CC4CC(CC(C4)C2)C3)cc1F | 27.5 µM | 13.2 µM
12 | COc1ccc(N2C(=O)C3c4[nH]c5ccc(C)cc5c4C4CCC(C(C)(C)C)CC4C3C2=O)cc1 (stereo not given) | > 100 µM | –
13 | CC/C=C\C[C@@H]1C/C=C2/C(=O)C=C[C@H]2C/C=C\CCCC(=O)O1 | 3.93 µM | 0.91 µM
14 | NC(=S)N/N=C/c1ccc(OC(=O)COc2ccc(Cl)cc2)cn1 | > 100 µM | 16.4 µM
15 | O=C(N/N=C/c1cccc(O)c1O)c1ccccc1 | > 100 µM | 3.49 µM
16 | c1ccc(C2=NNC3c4ccccc4-c4ccccc4N3C2)cc1 (stereo not given) | > 100 µM | –
17 | CN/N=C(/CCN1CCCC1)CC(c1ccccc1)c1c(O)c2ccccc2oc1=O (stereo not given) | > 100 µM | –
18 | COc1ccc(OC)c(/C=C/C(=O)N/N=C/c2ccc(Cl)cc2)c1 | > 79.3 µM | 0.123 µM
19 | COc1ccc(C(=O)c2cc(C)c(OC)c(C)c2)c(OC)c1N(C(=O)C(Cl)Cl)C(=O)C(Cl)Cl | > 100 µM | 0.101 µM
20 | CCN(CC)c1sc(N(CC)CC)c2c1SSSSS2 | 2.77 µM | 0.715 µM
21 | NC(CC(=O)OCc1ccccc1)C(=O)OCc1ccccc1 (stereo not given) | > 100 µM | –
22 | CCCCN=C(N)c1ccc(OCCSCCOc2ccc(C(N)=NCCCC)cc2)cc1 | > 100 µM | 16.4 µM

Each compound was assayed on OVCAR-4 ovarian (assay: inhibition of tumour cell growth, NCI panel, 48 h).

Row | Compound | TGI | GI50
23 | O=C1NC(=O)c2ccc([N+](=O)[O-])c3cccc1c23 | 35.5 µM | –
24 | C[N+](C)(C)CC1CCCC(C[N+](C)(C)C)C1=O (stereo not given) | 0.871 µM | –
25 | CN(C)CCCn1c2c(c3ccccc3c1=O)C(=O)c1ccccc1-2 | 48.9 µM | 3.15 µM
26 | COc1ccc2c(c1)C=C([N+](=O)[O-])C(C1OC(C)(C)OC1C1COC(C)(C)O1)O2 (stereo not given) | 21.3 µM | –
27 | CC(=O)OC1Oc2ccccc2-c2oc(=O)c(-c3cc4ccc(N(C)C)cc4oc3=O)cc21 (stereo not given) | 24 µM | 1.29 µM
28 | CCC1(O)C(=O)OCc2c1cc1n(c2=O)Cc2cc3ccc(C=O)cc3nc2-1 (stereo not given) | 50 µM and 23.6 µM | 10.3 µM
29 | COc1ccc2c(c1)C(=O)c1c-2n(CCCn2ccnc2)c(=O)c2ccccc12 | > 100 µM | 1.33 µM
30 | COc1cc2oc(-c3ccc(O)cc3)cc(=O)c2c(OC)c1OC | > 100 µM | –
31 | O=C(CCl)Nc1ccc(Cl)cc1 | 25.3 µM | 5.68 µM
32 | Fc1cc(F)c(COc2cc(Cn3cnc4c(Cl)nc(Cl)nc43)ccc2C23CC4CC(CC(C4)C2)C3)cc1F | 44 µM | 19.5 µM
33 | COc1ccc(N2C(=O)C3c4[nH]c5ccc(C)cc5c4C4CCC(C(C)(C)C)CC4C3C2=O)cc1 (stereo not given) | 10.8 µM | –
34 | CC/C=C\C[C@@H]1C/C=C2/C(=O)C=C[C@H]2C/C=C\CCCC(=O)O1 | 2.38 µM | 1.04 µM
35 | NC(=S)N/N=C/c1ccc(OC(=O)COc2ccc(Cl)cc2)cn1 | > 100 µM | 5.87 µM
36 | O=C(N/N=C/c1cccc(O)c1O)c1ccccc1 | > 29.5 µM | 0.312 µM
37 | c1ccc(C2=NNC3c4ccccc4-c4ccccc4N3C2)cc1 (stereo not given) | > 100 µM | –
38 | CN/N=C(/CCN1CCCC1)CC(c1ccccc1)c1c(O)c2ccccc2oc1=O (stereo not given) | > 100 µM | –
39 | COc1ccc(OC)c(/C=C/C(=O)N/N=C/c2ccc(Cl)cc2)c1 | > 100 µM | 1.41 µM
40 | COc1ccc(C(=O)c2cc(C)c(OC)c(C)c2)c(OC)c1N(C(=O)C(Cl)Cl)C(=O)C(Cl)Cl | > 100 µM | 1.59 µM
41 | CCN(CC)c1sc(N(CC)CC)c2c1SSSSS2 | 2.46 µM | 0.697 µM
42 | CCCCN=C(N)c1ccc(OCCSCCOc2ccc(C(N)=NCCCC)cc2)cc1 | > 100 µM | 3.94 µM

Each compound was assayed on SNB-19 CNS (assay: inhibition of tumour cell growth, NCI panel, 48 h).

Row | Compound | TGI | GI50
43 | O=C1NC(=O)c2ccc([N+](=O)[O-])c3cccc1c23 | 33.7 µM | –
44 | C[N+](C)(C)CC1CCCC(C[N+](C)(C)C)C1=O (stereo not given) | 38 µM | –
45 | CN(C)CCCn1c2c(c3ccccc3c1=O)C(=O)c1ccccc1-2 | 21.9 µM | 2.2 µM
46 | COc1ccc2c(c1)C=C([N+](=O)[O-])C(C1OC(C)(C)OC1C1COC(C)(C)O1)O2 (stereo not given) | 25.7 µM | –
47 | CN(C)CCNC(=O)c1cccc(C(=O)Nc2ccccc2)c1[N+](=O)[O-] | > 100 µM | –
48 | CC(=O)OC1Oc2ccccc2-c2oc(=O)c(-c3cc4ccc(N(C)C)cc4oc3=O)cc21 (stereo not given) | 36 µM | 13.1 µM
49 | CCC1(O)C(=O)OCc2c1cc1n(c2=O)Cc2cc3ccc(C=O)cc3nc2-1 (stereo not given) | 50 µM and > 100 µM | 1.67 µM
50 | COc1ccc2c(c1)C(=O)c1c-2n(CCCn2ccnc2)c(=O)c2ccccc12 | > 46.5 µM | 0.293 µM
51 | COc1cc2oc(-c3ccc(O)cc3)cc(=O)c2c(OC)c1OC | > 100 µM | –
52 | O=C(CCl)Nc1ccc(Cl)cc1 | 25.6 µM | 10.3 µM
53 | Fc1cc(F)c(COc2cc(Cn3cnc4c(Cl)nc(Cl)nc43)ccc2C23CC4CC(CC(C4)C2)C3)cc1F | 31.7 µM | 17.5 µM
